Here are results for one compound from US6608051B1, “Compositions and methods for treating blood” (MedPointe Healthcare Inc., priority 1999, dated 2003).

Series [1] in a line: solubility in aqueous solutions and organic solvents. In kind it is physicochemical.
A short description of series [2]: pH of a saturated solution in deionized water. The series is classed as physicochemical.
A short description of series [3]: apparent partition coefficient between octanol and water. In kind it is physicochemical. The conditions noted are these: buffered at pH 7.2.
Series [4] in a line: stability in the solid state. In kind it is physicochemical. Particulars: stored at ambient conditions.
For series [5] the following is noted: cited from earlier work.

With `O=S1(=O)CCN(CN2CCS(=O)(=O)NC2)CN1` [taurolidine, 4,4′-methylenebis(tetrahydro-1,2,4-thiadiazine)-1,1,1′,1′,-tetraoxide], the solubility result in series [1] (CHCl3) was “insoluble”; in series [1] (Dilute HCl), “soluble”; in series [1] (Dilute NaOH), “soluble”; in series [1] (EtOH), “sparingly soluble”; in series [1] (Water, at 20° C.) it was 1% at 20 °C. In addition, the “pH of a saturated solution” value in series [2] is 7.4. For the same compound, in series [3], the “apparent partition coefficient between octanol and water” value is reported as “approximately 0.13”. Besides, in series [4], the “stability in the solid state” value is listed as “acceptable stability”. For the same compound, the “cumulative dose shown to be safe and well tolerated” value in series [5] (cumulative doses, up to and exceeding) is given as no less than 300 g. Also, the “systemic dose shown to be safe and well tolerated” value in series [5] (systemic doses) is on record as “exceeding 40 g/day”.
